US11267831B2, “EF-Tu-binding metal-containing antibiotic” (Ruhr-Universitaet Bochum, priority 2017, dated 2022)

tested on: B. subtilis; assay: Proteome analysis via 2D-PAGE with 35S-methionine labelling of newly synthesized proteins; format: cell-based, Bacillus subtilis; details: 3 μg/ml DS50, 0.15 μg/ml nocathiacin I, 8 μg/ml GE2270 A or 50 μg/ml kirromycin, 15 min
Description: B. subtilis was grown to an OD500 of 0.35 in BMM and treated with 3 μg/ml DS50 or 12 μg/ml biotin-DS50 for 15 min or left untreated as control. The following concentrations were used for the reference antibiotics: 0.15 μg/ml nocathiacin I, 8 μg/ml GE2270 A or 50 μg/ml kirromycin. Radioactive labelling of newly synthesized proteins during antibiotic treatment with ^35S-methionine and 2D-PAGE analysis were essentially performed as described^38.
Protein spots were cut out of the gel and decolorized twice in a washing solution (20 mM ammonium bicarbonate, 30% acetonitrile). Disulfide bridges in proteins from gel pieces obtained from 1D-PAGE gels were reduced with 10 mM DTT in wash solution at 60° C. for 45 min. Cysteine alkylation was then performed with 50 mM iodoacetamide (IAA) in a washing solution for 25 min at room temperature in the dark. The gel pieces were washed twice with washing solution for 5 min at room temperature. The reduction and alkylation steps were omitted for samples from 2D-PAGE experiments. […] Gradient for identification of proteins from 1D-PAGE: initial, 0.5% eluant B (0.1% formic acid (FA) in acetonitrile); 1 min, 0.5% eluant B; 45 min, 60% eluant B; 48 min, 90% eluant B; 49 min, 99% eluant B; 51 min, 99% eluant B; 52 min, 0.5% eluant B; 60 min, 0.5% eluant B. 0.1% FA in water served as eluent A. Gradient for the identification of proteins from 2D-PAGE: initial, 0.5% eluent B; 22 min, 50% eluent B; 23 min, 99% eluent B; 26 min, 99% eluent B; 27 min, 0.5% eluent B; 30 min, 0.5% eluent B. Continuous MS^E spectra were recorded in a mass range of 50-1200 m/z and with a scanning time of […] in positive resolution mode with the following settings: Capillary voltage, 1.7 kV; cone voltage, 30 V; source temperature, 100° C.; cone gas flow, 50 l/h; desolvation gas flow, 500 l/h; desolvation temperature, 150° C. […] For protein identification, a database with 4180 proteins of B. subtilis was used (NCBI reference sequence: NC_000964.3, manually added: trypsin, keratin, quantification standard PhosB). […]

With `CNC(=O)C[C@@H]1NC(=O)c2csc(n2)-c2ccc(-c3nc(C4=N[C@H](C(=O)N5CCC[C@H]5C(N)=O)CO4)cs3)nc2-c2csc(n2)-c2csc(n2)[C@H]([C@@H](O)c2ccccc2)NC(=O)CNC(=O)c2nc(sc2COC)[C@H](C(C)C)NC(=O)c2nc1sc2C` [GE2270 A] as the compound, how does the “protein biosynthesis compared to control conditions” value read?
Its value is −65%.

Which “protein biosynthesis compared to control conditions” value does the source give for `C=C(NC(=O)c1csc(-c2nc3c(cc2O)-c2nc(cs2)C(=O)N[C@@H]([C@@H](C)O)C(=O)N/C(=C(\C)OC)c2nc(cs2)C(=O)N[C@@H]2c4nc(cs4)C(=O)N[C@@H](COC(=O)c4c5c6c(cccc6n4O)COC(=O)[C@@H](O[C@H]4C[C@](C)(O)[C@H](N(C)C)[C@H](C)O4)[C@H]2OC5)c2nc-3cs2)n1)C(N)=O.O=C(O)C(F)(F)F` [nocathiacin I] here?
The value was −15%.

For kirromycin, which “protein biosynthesis compared to control conditions” value is on record?
Its value is “not affected”.
